Type in all cases: cell-based
In one series the test system is NCI-H23. In words: NCI anticancer screening, Non-Small Cell Lung Cancer NCI-H23. Conditions: Homo sapiens; NCI-H23, 10 μM; read-out: % Growth Inhibition (GI %). An excerpt: (§1) The compound has been processed according to standard method NCI-60 Human Tumor Cell Lines Screen for organic compound at development therapeutic program (DTP). Requests for access to this national resource can be submitted online at: […]

A short description of series [1]: MTT cytotoxicity to normal human lung fibroblast Wi-38 cell line. Conditions: Wi-38 normal lung fibroblast cells, mean ± SEM, read-out: percentage of Wi-38 viability. As to the method: Normal human lung fibroblast Wi-38 cell line was used to detect cytotoxicity of the studied compounds (Table S8). Wi-38 cell line was cultured in DMEM medium-contained 10% fetal bovine serum (FBS), seeded as 5x10^3 cells per well in 96-well cell culture plate and incubated at 37 °C in 5% CO2 incubator. After 24 h for cell attachment, serial concentrations of the synthetic compounds were incubated with Wi-38 cells for 72 h. Cell viability was assayed by MTT method (Mosmann, 1983). Twenty microliters of 5 mg/ml MTT (Sigma, USA) was added to each well and the plate was incubated at 37 °C for 3 h. Then MTT solution was removed, 100 µl DMSO was added and the absorbance of each well was measured with a microplate reader (BMG LabTech, Germany) at 570 nm.

Another series concerns NCI-H226. In words: NCI anticancer screening, Non-Small Cell Lung Cancer NCI-H226. Conditions: Homo sapiens; NCI-H226, 10 μM; read-out: % Growth Inhibition (GI %).
Source text: as §1

In another series the test system is UO-31. In words: NCI anticancer screening, Renal Cancer UO-31. Conditions: Homo sapiens; UO-31, 10 μM; read-out: % Growth Inhibition (GI %).
Source text: as §1

The next series relates to RPMI-8226. Briefly: NCI anticancer screening, Leukemia RPMI-8226. Conditions: Homo sapiens; RPMI-8226, 10 μM; read-out: % Growth Inhibition (GI %).
Source text: as §1

A further series concerns OVCAR-3. Briefly: NCI anticancer screening, Ovarian Cancer OVCAR-3. Conditions: Homo sapiens; OVCAR-3, 10 μM; read-out: % Growth Inhibition (GI %).
Source text: as §1

For the next series, the system named is UACC-257. Briefly: NCI anticancer screening, Melanoma UACC-257. Conditions: Homo sapiens; UACC-257, 10 μM; read-out: % Growth Inhibition (GI %).
Source text: as §1

The test system of the next series is M14. In words: NCI anticancer screening, Melanoma M14. Conditions: Homo sapiens; M14, 10 μM; read-out: % Growth Inhibition (GI %).
Source text: as §1

For the next series, the system named is MDA-MB-468. Briefly: NCI anticancer screening, Breast Cancer MDA-MB-468. Conditions: Homo sapiens, read-out: % Growth Inhibition (GI %).
Source text: as §1

The subject of the next series is MCF7. Briefly: NCI anticancer screening, Breast Cancer MCF7. Conditions: Homo sapiens; MCF7, 10 μM; read-out: % Growth Inhibition (GI %).
Source text: as §1

In the next series the test system is UACC-62. Briefly: NCI anticancer screening, Melanoma UACC-62. Conditions: Homo sapiens; UACC-62, 10 μM; read-out: % Growth Inhibition (GI %).
Source text: as §1

A further series has as its system HCT-15. Briefly: NCI anticancer screening, Colon Cancer HCT-15. Conditions: Homo sapiens; HCT-15, 10 μM; read-out: % Growth Inhibition (GI %).
Source text: as §1

The next series has as its system HT29. In words: NCI anticancer screening, Colon Cancer HT29. Conditions: Homo sapiens, HT-29; HT29, 10 μM; read-out: % Growth Inhibition (GI %).
Source text: as §1

A further series relates to BT-549. In words: NCI anticancer screening, Breast Cancer BT-549. Conditions: Homo sapiens; BT-549, 10 μM; read-out: % Growth Inhibition (GI %).
Source text: as §1

A further series relates to NCI-H460. Briefly: NCI anticancer screening, Non-Small Cell Lung Cancer NCI-H460. Conditions: Homo sapiens; NCI-H460, 10 μM; read-out: % Growth Inhibition (GI %).
Source text: as §1

The subject of the next series is IGROV1. Briefly: NCI anticancer screening, Ovarian Cancer IGROV1. Conditions: Homo sapiens, IGROV-1; IGROV1, 10 μM; read-out: % Growth Inhibition (GI %).
Source text: as §1

For the next series, the system named is OVCAR-5. Briefly: NCI anticancer screening, Ovarian Cancer OVCAR-5. Conditions: Homo sapiens; OVCAR-5, 10 μM; read-out: % Growth Inhibition (GI %).
Source text: as §1

The subject of another series is SF-268. In words: NCI anticancer screening, CNS Cancer SF-268. Conditions: Homo sapiens; SF-268, 10 μM; read-out: % Growth Inhibition (GI %).
Source text: as §1

The next series has as its system MDA-MB-435. Briefly: NCI anticancer screening, Melanoma MDA-MB-435. Conditions: Homo sapiens; MDA-MB-435, 10 μM; read-out: % Growth Inhibition (GI %).
Source text: as §1

Another series relates to KM12. In words: NCI anticancer screening, Colon Cancer KM12. Conditions: Homo sapiens; KM12, 10 μM; read-out: % Growth Inhibition (GI %).
Source text: as §1

Turning to `O=C(c1nc2ccccc2[nH]1)[C@H]1[C@H](c2cccc(F)c2)C2CSCN2[C@]12C(=O)Nc1ccccc12` (stereo partly drawn) [Compound 6m, (3S,6′R)-6'-(1H-Benzo [d]imidazole-2-carbonyl)-7'-(3-fluorophenyl)-3′,6′,7′,7a′-tetrahydro-1′H-spiro [indoline-3.5′-pyrrolo [1,2-c]thiazol]-2-one], the inhibition at 10 µM with NCI-H23 came to 90.7%; in the series on NCI-H226, 92.6%; with UO-31 it was 65.3%; with RPMI-8226 it was 83.6%; in the series with OVCAR-3, 103%; in the series with UACC-257 it was 99%. Further, the inhibition at 10 µM in the series on M14 is 97%; in the series on MDA-MB-468, 99.3%; in the series with MCF7, 91.2%; with UACC-62, 80.1%; in the series with HCT-15 it was 95%; in the series with HT29 it was 86%. Besides, the inhibition at 10 µM with BT-549 worked out at 99.5%; in the series on NCI-H460 it was 97.3%; in the series on IGROV1, 84.6%; in the series with OVCAR-5 it was 90.5%; with SF-268, 88.6%; in the series with MDA-MB-435, 96.5%. Moreover, the inhibition at 10 µM in the series on KM12 was found to be 98.1%. Moreover, in series [1], the viability at 72 h, 5 µM is 43.7 ± 2.29%.

In the case of `O=C(c1nc2ccccc2[nH]1)[C@H]1[C@H](c2ccccc2O)C2CSCN2[C@]12C(=O)Nc1ccccc12` (stereo partly drawn) [Compound 6j, (3S,6′R)-6'-(1H-Benzo [d]imidazole-2-carbonyl)-7'-(2-hydroxyphenyl)-3′,6′,7′,7a′-tetrahydro-1′H-spiro [indoline-3.5′-pyrrolo [1,2-c]thiazol]-2-one], the inhibition at 10 µM in the series with NCI-H23 came to 96.5%; in the series on NCI-H226, 91.3%; with UO-31, 73.9%; in the series with RPMI-8226, 104%; in the series on OVCAR-3, 96.3%; in the series with UACC-257, 95.6%. The inhibition at 10 µM is 95.1% in the series with M14; 102% in the series on MDA-MB-468; 92.4% in the series on MCF7; 77.3% in the series with UACC-62; 101% with HCT-15; 99.3% with HT29. Besides, the inhibition at 10 µM in the series with BT-549 turned out to be 93.6%; in the series on NCI-H460, 97.4%; in the series on IGROV1, 92.1%; in the series with OVCAR-5, 102%; in the series with SF-268, 91.7%; in the series on MDA-MB-435, 92.7%. In the series on KM12, the inhibition at 10 µM is 82.5%. Moreover, the viability at 72 h, 5 µM in series [1] was 40 ± 2.38%.

Consider `CN(C)c1ccc([C@@H]2C3CSCN3[C@]3(C(=O)Nc4ccccc43)[C@H]2C(=O)c2nc3ccccc3[nH]2)cc1` (stereo partly drawn) [Compound 6k, (3S,6′R)-6'-(1H-Benzo [d]imidazole-2-carbonyl)-7'-(4-(dimethylamino)phenyl)-3′,6′,7′,7a′-tetrahydro-1′H-spiro [indoline-3.5′-pyrrolo [1,2-c]thiazol]-2-one], for which the inhibition at 10 µM in the series with NCI-H23 was determined as 94.3%; in the series on NCI-H226, 91.4%; in the series on UO-31, 73.4%; in the series with OVCAR-3 it was 103%; in the series on UACC-257 it was 90.2%; with M14 it was 103%. The inhibition at 10 µM in the series on MDA-MB-468 was determined as 99.8%; with MCF7, 93.6%; in the series with UACC-62 it was 84.4%; in the series with HCT-15, 99.1%; with HT29, 99.3%; in the series on BT-549, 108%. In addition, the inhibition at 10 µM in the series on NCI-H460 is 102%; with IGROV1, 89.8%; with OVCAR-5, 95.6%; in the series with SF-268, 92.1%; in the series with MDA-MB-435, 96.8%; in the series on KM12, 95.7%. For the same molecule, the viability at 72 h, 5 µM in series [1] was found to be 38.6 ± 3.02%.

As for `O=C(c1nc2ccccc2[nH]1)[C@H]1[C@H](c2ccco2)C2CSCN2[C@]12C(=O)Nc1ccccc12` (stereo partly drawn) [Compound 6n, (3S,6′R)-6'-(1H-Benzo [d]imidazole-2-carbonyl)-7'-(furan-2-yl)-3′,6′,7′,7a′-tetrahydro-1′H-spiro [indoline-3.5′-pyrrolo [1,2-c]thiazol]-2-one], the inhibition at 10 µM in the series with NCI-H23 came to 92.9%; in the series with NCI-H226 it was 92.2%; with UO-31 it was 61.7%; in the series on RPMI-8226 it was 101%; with OVCAR-3 it was 110%; in the series with UACC-257, 116%. The inhibition at 10 µM with M14 is 101%; in the series on MDA-MB-468, 102%; in the series with MCF7, 100%; in the series on UACC-62 it was 90.6%; with HCT-15, 105%; in the series with HT29, 115%. The inhibition at 10 µM in the series with BT-549 is 110%; in the series with NCI-H460, 102%; in the series with IGROV1, 92.4%; with OVCAR-5, 97.2%; in the series with SF-268, 102%; with MDA-MB-435 it was 105%. Also, the inhibition at 10 µM with KM12 is 102%. For the same molecule, the viability at 72 h, 5 µM in series [1] came out at 46.2 ± 1.47%.

For the molecule `O=C(c1nc2ccccc2[nH]1)[C@H]1[C@H](c2ccc(C(F)(F)F)cc2)C2CSCN2[C@]12C(=O)Nc1ccccc12` (stereo partly drawn) [Compound 6c, (3S,6′R)-6'-(1H-Benzo [d]imidazole-2-carbonyl)-7'-(4-(trifluoromethyl)phenyl)-3′,6′,7′,7a′-tetrahydro-1′H-spiro [indoline-3.5′-pyrrolo [1,2-c]thiazol]-2-one], the inhibition at 10 µM with NCI-H23 was found to be 82.3%; in the series with NCI-H226, 79%; in the series with UO-31 it was 55.4%; with RPMI-8226, 72%; with OVCAR-3 it was 87.7%; in the series with UACC-257 it was 98.5%. The inhibition at 10 µM with M14 was 83.3%; in the series on MDA-MB-468, 91.6%; in the series with MCF7, 77.7%; with UACC-62, 77.5%; in the series on HCT-15, 88.9%; in the series on HT29, 74.7%. The inhibition at 10 µM in the series with BT-549 came to 107%; in the series with NCI-H460 it was 66.8%; in the series on IGROV1 it was 67.8%; in the series with OVCAR-5, 96.1%; in the series with SF-268, 90.2%; in the series on MDA-MB-435, 88.3%. The inhibition at 10 µM with KM12 came to 71.8%. Moreover, in series [1], the viability at 72 h, 5 µM came out at 59.9 ± 2.84%.

(Values after article PMC11033320, “Activation of p53 signaling and regression of breast and prostate carcinoma cells by spirooxindole-benzimidazole small molecules” (Frontiers in Pharmacology, 2024).)
